A word on the ED50: it is the midpoint of the dose-response relation. Read a high ED50 as weaker potency.

Data set [1] relates to extensor tonic convulsions. Description: Electroshock induced convulsion inhibition assay (E.S.). It is filed as in vivo, mice (Cox standard strain albino male). To be noted: Mus musculus, 1 h; oral dose (gavage); mice; 60 min after administration; 0.1 second, 50 milliampere electroshock through corneal electrodes; inhibition of extensor tonic convulsions in half of the animals. The text has this:
The compounds of Formula I are anticonvulsant agents with a high therapeutic ratio and long half-life and are therefore useful in the treatment and prevention of convulsions in mammals. In particular, the compounds are effective against tonic extensor seizures elicited by maximal electroshock and should therefore be useful for treating generalized tonic-clonic ("grand mal"), cortical focal, complex partial (temporal lobe epilepsy), simple partial (focal motor), and post-traumaticseizures in humans. […] In the electroshock induced convulsion inhibition assay (E.S.), the compound to be tested was dissolved in water (5% --sufficient hydrochloric acid was added for those compounds which were not isolated as a salt in order to effect dissolution) and administered by gavage to each of ten Cox standard strain albino male mice (18-24 g) at the dose level being investigated. Sixty minutes after compound administration, the mice were subjected to a 0.1 second, 50 milliampere electroshock through corneal electrodes. The animals were examined and evaluated immediately after the electroshock for the occurrence of clonic, flexor tonic, or extensor tonic convulsions, or death and the ED50 was determined for each compound as the dose which inhibited the occurrence of extensor tonic convulsions in one half of the animals immediately after the electroshock. For comparison, 18 milliamperes was usually sufficient to produce extensor tonic convulsions in about half of the control animals; at 50 milliamperes, almost all control animals (receiving vehicle only) died.

For data set [2], the system named is seizures. The settings on record: man, cited from earlier work.

Each structure is given as a SMILES string.

In data set [1], `Cl.Nc1ccc(C(=O)NC2CCCc3ccccc32)cc1` (stereo not shown) [Example 7, 4-amino-N-(1,2,3,4-tetrahydro-1-naphthalenyl)benzamide hydrochloride] yielded an ED50 of 44.5 mg/kg. Consider `Nc1ccc(C(=O)NC2CCc3ccccc32)cc1` (stereo not shown) [Example 8, 4-Amino-N-(2,3-dihydro-1H-inden-1-yl)benzamide], for which the median effective dose (ED50) in data set [1] came out at 31 mg/kg. The same measure, in the same setting: under `C[C@H](NC(=O)c1ccc(N)cc1)c1cccc2ccccc12.Cl` [Example 9, (S)-4-amino-N-[1-(1-naphthalenyl)ethyl]benzamide hydrochloride] stands 110 mg/kg; under `Nc1ccc(C(=O)Nc2cccc3c2CCCC3)cc1` [Example 10, 4-Amino-N-(5,6,7,8-tetrahydro-1-naphthalenyl)benzamide], 100 mg/kg. `Cl.Nc1ccc(C(=O)Nc2cccc3ccccc23)cc1` [Example 11, 4-Amino-N-1-naphthalenylbenzamide hydrochloride] showed an ED50 in data set [1] of 62 mg/kg. Still for that read-out and setting: in the case of `Nc1ccc(C(=O)Nc2ccc3ccccc3c2)cc1` [Example 12, 4-Amino-N-2-naphthalenylbenzamide] it was greater than 200 mg/kg. As to `O=C1NC(=O)C(c2ccccc2)(c2ccccc2)N1` [phenytoin], the “plasma level at which ataxia is obvious” value in data set [2] (ataxia) is 30000 ng/mL. For the same compound, the “plasma level at which lethargy is apparent” value in data set [2] (lethargy) is reported as “about 40 mcg/ml”. Also, in data set [2] (nystagmus), the “plasma level at which nystagmus is seen” value was “around 20 mcg/ml”. For the same compound, in data set [2], the “plasma level at which seizures are controlled” value was no less than 10 µg/mL.

These data come from US4632939A, “Anticonvulsant agents” (Eli Lilly and Company, priority 1985, dated 1986).
